Reference: patent publication US10711007B2, “Selective inhibitors of protein arginine methyltransferase 5 (PRMT5)” (Prelude Therapeutics, Incorporated, priority 2018, dated 2020)

Columns and labels:
[1] = test system: fetal hemoglobin expressing erythroid cells (% F cells); assay: % F cells by flow cytometry in human erythroid cells; format: cell-based; details: erythroid progenitors, Day 7 of treatment, N=1
Method: Human erythroid progenitor cells were generated from purified CD34+ cells from mobilized peripheral blood purchased from AllCells. CD34+ cells were cultured in StemSpan SFEM II (StemCell Technologies, Catalog #09605) supplemented with 100 ng/ml FLT3 ligand (R&D systems, Catalog #308-FK), 100 ng/ml SCF (R&D systems, Catalog #255-SC), 20 ng/ml IL-3 (R&D systems, Catalog #203-IL), 20 ng/ml IL-6 (R&D systems, Catalog #206-IL) for 6 days, then reseeded into the same medium supplemented with 20 ng/ml SCF, 5 ng/ml IL-3, 1 U/ml EPO (R&D systems, Catalog #287-TC), 2 μM dexamethasone (Sigma-Aldrich, Catalog # D4902), 1 μM β-estradiol (Sigma-Aldrich, Catalog # E2758). Cells were treated with 0.1 and 1 μM compound from Day 8 of differentiation. Media and compound were renewed every 3 days and cells were collected for RNA isolation after 9 days of treatment.
Assessment of % F Cells by Flow Cytometry
Human erythroid cells were collected on Day 7 of treatment with compound. Cells were fixed in 0.05% glutaraldehyde (Electron Microscopy Sciences, Catalog #16019), permeabilized with 0.1% Triton-X and stained with FITC-conjugated antibody directed to fetal hemoglobin (ThermoFisher, Catalog # MHFH01). Analysis of fetal hemoglobin expressing erythroid cells (% F cells) was performed on an Attune Nxt flow cytometer (ThermoFisher).

[2] = test system: γ-globin expression in K562 cells; assay: γ-globin induction by quantitative PCR in K562 cells; format: cell-based; details: 1 μM, 6 days of treatment, N=1
Method: Compounds were dissolved in DMSO to make 10 mM stock solutions, and further diluted to make 1 mM and 0.1 mM stocks.
K562 cells were purchased from ATCC and maintained in Iscove's DMEM (Corning Cellgro, Catalog #15-016-CVR) supplemented with 10% v/v FBS (GE Healthcare, Catalog #: SH30910.03) in a CO2 incubator (5% CO2) at 37° C. Cells were plated at a density of 5×10^5 cells/ml and treated with compound at final concentrations of 0.1 and 1 μM. Media and compound were renewed after 3 days in culture and cells were collected for RNA isolation after 6 days of treatment.
Assessment of γ-Globin Induction by Quantitative PCR
RNA was isolated using Quick-RNA Microprep kit (Zymo Research, Catalog # Z1050), cDNA was synthesized using qScript cDNA SuperMix (Quantabio, Catalog #95048). Quantitative PCR for y-globin was performed using PerfeCTa SYBR Green FastMix (Quantabio, Catalog #95071) on Bio-Rad CFX Connect Real-Time PCR Detection System. Gene expression analysis was performed using CFX Manager software.
Assessment of γ-Globin Induction by Quantitative PCR in K562 Cells
Compounds were dissolved in DMSO to make 10 mM stock solutions, and further diluted to make 1 mM and 0.1 mM stocks. K562 cells were purchased from ATCC and maintained in Iscove's DMEM (Corning Cellgro, Catalog #15-016-CVR) supplemented with 10% v/v FBS (GE Healthcare, Catalog #: SH30910.03) in a CO2 incubator (5% CO2) at 37° C. […]

PRMT5/MEP50 complex = PRMT5/MEP50 complex (Homo sapiens (Human), UniProt O14744); assay: Biochemical assay: PRMT5/MEP50 methylation of histone H4 based AcH4-23, SPA readout; details: PRMT5/MEP50 2.5 nM, 300 nM AcH4-23, 1 μM 3H-SAM
Procedure, shortened: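 PRMT5/MEP50 (2.5 nM final) preincubated with compound 20 min at 37°C alongside 300 nM AcH4-23 peptide. Reaction started with 1 µM [3H-methyl]-SAM, run 30 min at 37°C and quenched with guanidine HCl. Streptavidin SPA beads, scintillation counting; IC50 from four-parameter Hill fit.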

PRMT5/MEP50 complex, sequence (O14744 whole entry): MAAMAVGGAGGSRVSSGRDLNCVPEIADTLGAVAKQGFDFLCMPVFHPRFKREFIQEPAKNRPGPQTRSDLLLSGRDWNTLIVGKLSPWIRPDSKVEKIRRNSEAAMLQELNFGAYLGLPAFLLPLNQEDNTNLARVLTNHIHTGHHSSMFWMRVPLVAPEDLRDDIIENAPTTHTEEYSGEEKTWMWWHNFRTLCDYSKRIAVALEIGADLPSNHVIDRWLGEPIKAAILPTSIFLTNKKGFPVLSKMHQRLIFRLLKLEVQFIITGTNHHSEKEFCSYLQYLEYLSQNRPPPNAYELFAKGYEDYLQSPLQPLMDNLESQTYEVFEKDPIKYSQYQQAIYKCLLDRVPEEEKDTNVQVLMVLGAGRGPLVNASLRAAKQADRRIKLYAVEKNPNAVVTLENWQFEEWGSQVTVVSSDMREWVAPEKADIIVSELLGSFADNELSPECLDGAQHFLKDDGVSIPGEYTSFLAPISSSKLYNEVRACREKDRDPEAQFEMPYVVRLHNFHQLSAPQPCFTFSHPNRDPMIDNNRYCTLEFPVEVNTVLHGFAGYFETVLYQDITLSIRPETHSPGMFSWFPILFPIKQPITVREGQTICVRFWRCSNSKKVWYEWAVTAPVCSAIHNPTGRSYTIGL
PRMT5/MEP50 complex, sequence (Q9BQA1 whole entry partner): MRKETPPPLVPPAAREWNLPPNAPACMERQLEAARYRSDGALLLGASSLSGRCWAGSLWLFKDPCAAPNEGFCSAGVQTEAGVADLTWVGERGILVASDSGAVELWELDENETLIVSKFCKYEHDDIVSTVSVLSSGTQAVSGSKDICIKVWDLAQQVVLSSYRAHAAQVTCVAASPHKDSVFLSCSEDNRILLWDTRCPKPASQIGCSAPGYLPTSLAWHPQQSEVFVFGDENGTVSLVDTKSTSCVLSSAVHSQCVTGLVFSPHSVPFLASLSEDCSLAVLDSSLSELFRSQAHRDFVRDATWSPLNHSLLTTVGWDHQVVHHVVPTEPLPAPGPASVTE

Nc1ncnc2c1ccn2[C@@H]1O[C@H]([C@@H]2OCc3ccc(Cl)cc32)[C@@H](O)[C@H]1O [Example 5, (2R,3R,4S,5S)-2-(4-amino-7H-pyrrolo[2,3-d]pyrimidin-7-yl)-5-((R)-6-chloro-1,3-dihydroisobenzofuran-1-yl)tetrahydrofuran-3,4-diol]
increase in % F cells compared to DMSO treated control ([1]; 0.1 μM): 1.3 fold | increase in % F cells compared to DMSO treated control ([1]; 1 μM): 3 fold | increase in expression of γ-globin [2]: 8 fold | IC50 (PRMT5/MEP50 complex): 1 nM
